# Measured values taken from patent publication US12344879B2, “Transgenic bacteria with expanded amino acid usage and nucleic acid molecules for use in the same” (BOARD OF REGENTS, THE UNIVERSITY OF TEXAS SYSTEM, priority 2015, dated 2025).
# B1: tRNA^UG: tRNA^Sec derivative with strong EF-Tu binding region from the major E. coli tRNA^Gly (nucleic acid)
# chain: GGAAGATGGTCGTCTCCGGTGAGGCGGCTGGACTCTAAATCCAGTTGGGGCCGCCAGCGGTCCCGGCGAGGTTCGACTCCTCGTATCTTCCGCCA
# modifications: expressed or natural sequence
# B2: FdhH U140S: E. coli formate dehydrogenase H with serine in place of selenocysteine 140 (protein, UniProt P07658 1-715, looked up, variant U140S)
# Formate dehydrogenase H: MKKVVTVCPYCASGCKINLVVDNGKIVRAEAAQGKTNQGTLCLKGYYGWDFINDTQILTPRLKTPMIRRQRGGKLEPVSWDEALNYVAERLSAIKEKYGPDAIQTTGSSRGTGNETNYVMQKFARAVIGTNNVDCCARVSHGPSVAGLHQSVGNGAMSNAINEIDNTDLVFVFGYNPADSHPIVANHVINAKRNGAKIIVCDPRKIETARIADMHIALKNGSNIALLNAMGHVIIEENLYDKAFVASRTEGFEEYRKIVEGYTPESVEDITGVSASEIRQAARMYAQAKSAAILWGMGVTQFYQGVETVRSLTSLAMLTGNLGKPHAGVNPVRGQNNVQGACDMGALPDTYPGYQYVKDPANREKFAKAWGVESLPAHTGYRISELPHRAAHGEVRAAYIMGEDPLQTDAELSAVRKAFEDLELVIVQDIFMTKTASAADVILPSTSWGEHEGVFTAADRGFQRFFKAVEPKWDLKTDWQIISEIATRMGYPMHYNNTQEIWDELRHLCPDFYGATYEKMGELGFIQWPCRDTSDADQGTSYLFKEKFDTPNGLAQFFTCDWVAPIDKLTDEYPMVLSTVREVGHYSCRSMTGNCAALAALADEPGYAQINTEDAKRLGIEDEALVWVHSRKGKIITRAQVSDRPNKGAIYMTYQWWIGACNELVTENLSPITKTPEYKYCAVRVEPIADQRAAEQYVIDEYNKLKTRLREAALA
# Experiments:
# [1] = tested on: human cellular glutathione peroxidase (GPx-1) codon 49; assay: Selenocysteine incorporation into GPx-1 U49 by intact mass spectrometry; set-up: species or system E. coli RTΔA.2; settings: GPx-1 U49, pGPx-U49-AU and pRSF-eSelAK
# Experimental: RTΔA.2 transformants containing pGPx-U49-AU and pRSF-eSelAK were cultured as described previously for azurin. Cells were harvested by centrifugation and resuspended in 50 mL of buffer (50 mM Potassium Phosphate, 150 mM NaCl, 10% glycerol, 1 mM DTT at pH 8.0) and lysozyme at 1 mg·mL^−1. Cells were lysed by sonication and clarified prior to GPx-1 recovery by IMAC. Eluate was concentrated and dialyzed against 100 mM phosphate buffer pH 8.0, 0.1% Tween 20 and 1 mM DTT followed by isolation of GPx-1 by anion exchange chromatography (Q HP column). GPx-1 was produced with a yield of 500 μg·L^−1 and close to 100% selenocysteine incorporation efficiency.
# Intact protein samples were analyzed using methods described previously (Ellefson et al., 2014). Azurin, DHFR and GPx-1 samples were buffer exchanged into LC-MS grade water using 10 kDa molecular weight cutoff filters. Once the buffer exchange was complete the samples were diluted to 20 μM in a methanol/water/formic acid (50/49/1) solution. […] UVPD mass spectra were also deconvoluted using Xtract and then analyzed using ProsightPC 3.0. […] Incorporation efficiencies were calculated by dividing the area of the modified protein peak by the summed areas of the unmodified protein peak and the modified protein peak. […]
# [2] = tested on: NMC-A β-lactamase reporter (C69X); assay: NMC-A β-lactamase reporter assay (ampicillin resistance by amber suppression with selenocysteine); format: cell-based, E. coli DHΔabc; settings: NMC-A C69X reporter, DHΔabc
# Text: A method of genetic selection capable of discriminating different levels of selenocysteine incorporation was developed. To specifically ‘addict’ a reporter protein to selenocysteine rather than serine, the NMC-A β-lactamase from Enterobacter cloacae was used. […] Then cysteine 69 was replaced with an amber stop codon (X69; FIG. 1a) for library selection, hypothesizing that the incorporation of selenocysteine and the formation of a selenyl-sulfhydryl bond would restore activity. (Swardn et al., 1998)
# To eliminate any crosstalk between the tRNA^Sec library and the endogenous selenocysteine incorporation machinery, the selA, selB and selC genes (encoding SelA, SelB and tRNA^Sec respectively) were deleted from E. coli DH10B (designated DHΔabc). Cells containing the reporter plasmid pNMC-A C69X and the accessory plasmid pRSF-eSelA (expressing SelA) were transformed with plasmid pMB1-ZU containing the tRNA^Sec antideterminant library. Transformants were plated on media containing a gradient of ampicillin concentrations for selection of mutants capable of selenocysteine-specific suppression. The single colonies that arose covered a range of ampicillin concentrations. […] Of these tRNA^Sec variants, only G7-C66:U49-G65:C50-U64 was detected at the two highest ampicillin concentration (200 and 250 μg·ml^−1).
# The tRNA^Sec antideterminant library was generated by enzymatic inverse PCR using oligonucleotide primers (Table 2) to randomize the six positions identified as the main antideterminant for EF-Tu binding. Following self ligation for 16 hours, DNA was ethanol precipitated with GlycoBlue (Ambion) and transformed by electroporation into E. coli DHΔabc containing the plasmids pNMC-A C69X and pRSF-eSelA. Transformants were diluted in 200 ml LB medium containing 12.5 μg·mL^−1 Zeocin, 6.25 μg·mL^−1 tetracycline and 25 μg·mL^−1 kanamycin and incubated overnight. Following overnight growth, cells were diluted 1/50 in LB medium containing 6.25 μg·mL^−1 Zeocin, 3.75 μg·mL^−1 tetracycline, 12.5 μg·mL^−1 kanamycin, 1 μM Na2SeO3 and 20 μg·mL^−1 L-cysteine and incubated for one hour. A series of 250 μl aliquots of cells were plated on LB agar containing 6.25 μg·mL^−1 Zeocin, 3.75 μg·mL^−1 tetracycline, 12.5 […], 1 μM Na2SeO3 and 20 μg·mL^−1 L-cysteine and 50-300 μg·mL^−1 ampicillin in 50 μg·mL^−1 increments. After 20 hours at 37° C. individual colonies were observed on plates containing 50-200 μg·mL^−1 ampicillin. Plasmid DNA was isolated from a selection of colonies from all plates and tRNA^Sec mutations determined by Sanger sequencing.
# NotI/NcoI fragments containing tRNA^SecUx were subcloned into pRSF-eSelA to generate pRSF-UX-eSelA. pRSF-U-eSelA variants described in Table 1 were transformed into E. coli DHΔabc containing the reporter plasmid pNMC-A C69TAG. DHΔabc cells containing pNMC-A and pRSFDuet-1 were used as a positive control. DHΔabc cells harboring pNMC-A C69S and pRSF-UX-eSelA, and pNMC-A C69TAG and pRSF-UX-ΔSelA were used as controls for selenocysteine dependent β-lactamase activity. Transformants were cultured overnight in LB medium containing 6.25 μg·mL^−1 tetracycline, 25 μg·mL^−1 kanamycin, 1 μM Na2SeO3 and 20 […]. Following overnight growth, cells were diluted 1/10 in LB medium containing antibiotics, selenite and L-cysteine and incubated for three hours. […]
# [3] = tested on: E. coli formate dehydrogenase H (FdhH); assay: Benzyl viologen assay; format: cell-based, E. coli DHΔabcF; settings: FdhH U140TAG or U140S reporter, co-expressed with SelA, anaerobic
# Experimental: The tRNA^Sec variant containing the G7-C66:U49-G65:C50-U64 (SEQ ID NO: 18) antideterminant sequence was designated tRNA^SecUx and was compared with the previously designed chimera (tRNA^UTu) and with a tRNA^Sec derivative designed to have an antideterminant region that should tightly bind EF-Tu (tRNA^UG; FIG. 2a). […] The hybrid tRNA^UTu incorporated selenocysteine and could grow on 75 μg·ml^−1. […] To further confirm tRNA^SecUx incorporated selenocysteine in response to amber stop codons, a standard colorimetric assay was employed based on the activity of the endogenous E. coli selenoprotein formate dehydrogenase H (FdhH) (FIG. 2b).
# E. coli DH10B cells containing pRSFDuet-1 and pcat-pheS were used as a positive control. DHΔabcF cells harboring p15A-fdhF U140S and pRSF-UX-eSelA, and p15A-fdhF U140X and pRSF-UX-ΔSelA were used as controls for selenocysteine dependent formate dehydrogenase activity. Transformants were grown overnight at 37° C. in LB medium supplemented with 12.5 μg·mL^−1 tetracycline and 50 μg·mL^−1 kanamycin. Overnight cultures were diluted 1/20 in a final volume of 2 ml and incubated for three hours. Cultures were normalized to OD600=0.5 and 5 μl aliquots were dotted on LB agar plates containing 3.75 μg·mL^−1 tetracycline, 12.5 μg·mL^−1 kanamycin, 5 mM sodium formate, 10 μM Na2MoO4, 1 μM Na2SeO3 and 20 μg·mL^−1 L-cysteine. Plates were incubated at 37° C. for 3 h under aerobic conditions and then transferred to anaerobic conditions at 37° C. for 60 h. Upon removal from the anaerobic chamber, plates were immediately overlaid with agar containing 1 mg·mL^−1 benzyl viologen, 250 mM sodium formate and 25 mM KH2PO4 at pH 7.0. Plates were photographed within 1 h of overlaying.
Molecule,production of active β-lactamase [2],further results
GPx-1: Recombinant human cellular glutathione peroxidase with selenocysteine at codon 49,–,selenocysteine incorporation efficiency in GPx-1 [1]: ~100%
tRNA^SecCUA: Parental E. coli tRNA^Sec containing a CUA anticodon [reference compound],failed to produce active β-lactamase,–
B1,failed to produce active β-lactamase,–
B2,–,FdhH activity (reduction of benzyl viologen) [3]: completely inactive
